# Source: paper PMC8465942, “Cyano- and Ketone-Containing Selenoesters as Multi-Target Compounds against Resistant Cancers” (Cancers, 2021)
# “Also recorded” adds a separate entry of the source. Where two headings read alike, the source gives them in different places. Marks after values point to notes of the source that are not given here.
# Legend:
# [1] = tested on: Colo 320/MDR-LRP human colonic adenocarcinoma cell line; assay: Cytotoxicity (MTT) on resistant Colo 320 cells; type: cell-based; settings: for IC50: Homo sapiens, read-out: Colo 320 (IC50 µM) Mean; for SI MRC-5/Colo 320: ratio IC50 non-tumour cells / IC50 cancer cells
# From the text: Three cell lines have been used in this study: the doxorubicin-sensitive Colo 205 (CCL-222, ATCC, Manassas, VA, USA) human colonic adenocarcinoma cell line; the multidrug resistant Colo 320/MDR-LRP expressing P-gp (MDR1)-LRP (CCL-220.1, ATCC) human colonic adenocarcinoma cell line; and the MRC-5 human embryonal lung fibroblast cell line (CCL-171, ATCC). The colon adenocarcinoma cell lines were purchased from LGC Promochem (Teddington, UK), and the MRC-5 cell line was purchased from Sigma-Aldrich (Merck KGaA, Darmstadt, Germany). Their culture conditions are as follows: Colo 205 (CCL-222, ATCC) and Colo 320/MDR-LRP expressing P-gp (MDR1)-LRP (CCL-220.1, ATCC) human colon adenocarcinoma cell lines were cultured in RPMI 1640 medium, supplemented with 10% FBS, 2 mM L-glutamine, 1 mM Na-pyruvate, and […]. The cell lines were incubated at 37 °C, 5% CO2, and 95% air atmosphere. The semi-adherent human colon cancer cells were detached with a Trypsin-Versene (EDTA) solution for 5 min at 37 °C. MRC-5 human embryonal lung fibroblast cells were cultured in EMEM containing 4.5 g/L of glucose and supplemented with a non-essential amino acid mixture, a selection of vitamins, and 10% FBS. The cell lines were incubated at 37 °C, 5% CO2, and 95% air atmosphere.
# The effects of increasing concentrations of the compounds on cell growth were tested in 96-well flat-bottomed microtiter plates. Moreover, 10^4 of human colonic adenocarcinoma cells in 100 μL of the medium (RPMI-1640) were added to each well, except for the medium control wells. The adherent human embryonic lung fibroblast cell line was seeded in the EMEM medium for 4 h before the assay. The two-fold serial dilutions of the compounds were made in a separate plate (0.19–100 μM), and then transferred to the plates containing the adherent corresponding cell line. Culture plates were incubated at 37 °C for 24 h. At the end of the incubation period, 20 μL of MTT (thiazolyl blue tetrazolium bromide) solution (from a 5 mg/mL stock solution) were added to each well. After incubation at 37 °C for 4 h, 100 μL of sodium dodecyl sulfate (SDS) solution (10% SDS in 0.01 M HCl) was added to each well, and the plates were further incubated at 37 °C overnight. Cell growth was determined by measuring the optical density (OD) at 540 nm (ref. 630 nm) with a Multiscan EX ELISA reader (Thermo Labsystems, Cheshire, WA, USA). Inhibition of cell growth was expressed as IC50 values, defined as the inhibitory dose that reduces the growth of the cells exposed to the tested compounds by 50%. IC50 values and the SD of triplicate experiments were calculated by using GraphPad Prism software version 5.00 for Windows, with a non-linear regression curve fit (GraphPad Software, San Diego, CA, USA; www.graphpad.com, accessed on 12 July 2021). Doxorubicin (from a 2 mg/mL stock solution, Teva Pharmaceuticals) was used as a positive control.
# (§1) The selectivity indexes (SI) were calculated as the ratio of the IC50 value in the non-tumour cells and the IC50 in the cancer cell lines. The compound’s activity towards cancer cells is considered as strongly selective if the selectivity index (SI) value is higher than 6, moderately selective if 3 < SI < 6, slightly selective if 1 < SI < 3, and non-selective if SI is lower than 1 [16].
# [2] = tested on: HeLa (cervical adenocarcinoma); assay: Cytotoxicity on HeLa cells; type: cell-based, human; settings: ratio IC50 non-tumour cells / IC50 cancer cells
# [3] = tested on: HepG2 (hepatocellular carcinoma); assay: Cytotoxicity on HepG2 cells; type: cell-based; settings: Homo sapiens
# Protocol: (§2) The activity of selenoesters was tested on several cancer cell lines, including HepG2 (hepatocellular carcinoma, CCL-23TM, ATCC); HeLa (cervical adenocarcinoma, CCL-2TM, ATCC); B16 (skin melanoma, CCL-6322TM, ATCC); and a non-cancerous cell line, HDF (human dermal fibroblasts, Sigma-Aldrich). HepG2, HeLa, B16, and HDF cell lines were cultivated in EMEM medium supplemented with 10% FBS, 2 mM L-glutamine, and 1% penicillin-streptomycin mixture. The HaCaT cell line was cultivated in DMEM medium supplemented with 10% FBS and 1% penicillin-streptomycin mixture. All of the cells were cultivated in a CO2 incubator (5% CO2, 37 °C). Twice per week, the cell lines were passaged according to a standardized protocol with a trypsin-EDTA solution.
# as §1
# [4] = tested on: resistant Colo 320 colon adenocarcinoma cells expressing the ABCB1 transporter; assay: Checkerboard combination assay with doxorubicin; type: cell-based, human
# Protocol: A checkerboard microplate method was applied to study the effect of drug interactions between the selenocompounds and the chemotherapeutic drug doxorubicin on resistant Colo 320 colon adenocarcinoma cells expressing the ABCB1 transporter. Results were expressed in terms of the combination index (CI) values at 50% growth inhibition (ED50), which were determined by using CompuSyn software to plot 4 or 5 data points for each ratio.
# To perform the experiment, the dilutions of doxorubicin were made in a horizontal direction in 100 µL, and the dilutions of the Se-compounds were made vertically in the microtiter plate in a volume of 50 µL. The cells were re-suspended in the culture medium and distributed into each well in 50 µL portions containing 6000 cells. The plates were incubated for 72 h at 37 °C in a CO2 incubator. The cell growth rate was determined after MTT staining. At the end of the incubation period, 20 μL of MTT solution was added to each well. After incubation at 37 °C for 4 h, 100 μL of SDS was added to each well and the plates were further incubated at 37 °C overnight. The optical density (OD) was measured at 540/630 nm with the Multiscan EX ELISA reader.
# [5] = tested on: HeLa (cervical adenocarcinoma); assay: Cytotoxicity on HeLa cells; type: cell-based; settings: Homo sapiens
# Protocol: as §2, §1
# [6] = in at least one of the ratios tested
# [7] = ratio 0.6:1, starting conc. 5 µM
# [8] = ratio 1.2:1, starting conc. 5 µM
# [9] = ratio 2.4:1, starting conc. 5 µM
# [10] = ratio 4.8:1, starting conc. 5 µM
# [11] = ratio 9.6:1, starting conc. 5 µM
# [12] = ratio 0.7:1, starting conc. 6 µM
# [13] = ratio 1.4:1, starting conc. 6 µM
# [14] = ratio 2.8:1, starting conc. 6 µM
# [15] = ratio 5.6:1, starting conc. 6 µM
# [16] = ratio 11.2:1, starting conc. 6 µM
# [17] = ratio 22.4:1, starting conc. 6 µM
structure (smiles),measurement,setting,value
"CC(=O)C[Se]C(=O)c1cccs1 [K1, Se-(2-Oxopropyl) Thiophene-2-carboselenoate]",IC50,"[1]; COLO 320, 24 h, MTT",1.47 µM
same,SI MRC-5/Colo 320,[1],1.52
same,SI MRC-5/HeLa,[2],1.5
same,IC50,[3],2.3 µM
same,Interaction with doxorubicin,[4]; [6],synergistic manner; also recorded: interact synergistically
same,Type of Interaction,[4]; [7],Antagonism
same,Type of Interaction,[4]; [8],Additive effect
same,Type of Interaction,[4]; [9],Additive effect
same,Type of Interaction,[4]; [10],Slight synergism
same,Type of Interaction,[4]; [11],Slight antagonism
same,IC50,[5],2.5 µM
"CC(=O)C[Se]C(=O)c1ccccc1F [K2, Se-(2-Oxopropyl) 2-Fluorobenzoselenoate]",IC50,"[1]; COLO 320, 24 h, MTT",2.38 µM
same,SI MRC-5/Colo 320,[1],1.06
same,SI MRC-5/HeLa,[2],1.0
same,IC50,[3],2.2 µM
same,Type of Interaction,[4]; [12],Antagonism
same,Type of Interaction,[4]; [13],Antagonism
same,Type of Interaction,[4]; [14],Slight antagonism
same,Type of Interaction,[4]; [15],Additive effect
same,Type of Interaction,[4]; [16],Antagonism
same,Type of Interaction,[4]; [17],Antagonism
same,IC50,[5],2.5 µM
"CC(=O)C[Se]C(=O)c1ccc(Br)cc1 [K3, Se-(2-Oxopropyl) 4-Bromobenzoselenoate]",IC50,"[1]; COLO 320, 24 h",2.15 µM
same,SI MRC-5/Colo 320,[1],1.33
same,SI MRC-5/HeLa,[2],1.1
same,IC50,[3],3.1 µM
same,Interaction with doxorubicin,[4]; [6],synergistic manner; also recorded: interact synergistically
same,Type of Interaction,[4]; [12],Moderate antagonism
same,Type of Interaction,[4]; [13],Synergism
same,Type of Interaction,[4]; [14],Moderate synergism
same,Type of Interaction,[4]; [15],Antagonism
same,Type of Interaction,[4]; [16],Moderate antagonism
same,Type of Interaction,[4]; [17],Antagonism
same,IC50,[5],2.1 µM
"CC(=O)C[Se]C(=O)c1ccccc1C(F)(F)F [K4, Se-(2-Oxopropyl) 2-(Trifluoromethyl)benzoselenoate]",IC50,"[1]; COLO 320, 24 h",1.48 µM
same,SI MRC-5/Colo 320,[1],2.45
same,SI MRC-5/HeLa,[2],1.5
same,IC50,[3],4.3 µM
same,Interaction with doxorubicin,[4]; [6],synergistic manner; also recorded: interact synergistically
same,Type of Interaction,[4]; [7],Synergism
same,Type of Interaction,[4]; [8],Additive effect
same,Type of Interaction,[4]; [9],Additive effect
same,Type of Interaction,[4]; [10],Moderate synergism
same,Type of Interaction,[4]; [11],Slight synergism
same,Type of Interaction,"[4]; ratio 19.2:1, starting conc. 5 µM",Additive effect
same,IC50,[5],1.9 µM
"CC(=O)C[Se]C(=O)c1cccc(C(F)(F)F)c1 [K5, Se-(2-Oxopropyl) 3-(Trifluoromethyl)benzoselenoate]",IC50,"[1]; COLO 320, 24 h, MTT",2.17 µM
same,SI MRC-5/Colo 320,[1],1.43
same,SI MRC-5/HeLa,[2],1.2
same,IC50,[3],2.4 µM
same,Interaction with doxorubicin,[4]; in all ratios tested,synergistic interaction
same,Interaction with doxorubicin,[4]; [6],synergistic manner; also recorded: interact synergistically
same,Type of Interaction,[4]; [12],Synergism
same,Type of Interaction,[4]; [13],Moderate synergism
same,Type of Interaction,[4]; [14],Synergism
same,Type of Interaction,[4]; [15],Synergism
same,Type of Interaction,[4]; [16],Synergism
same,Type of Interaction,[4]; [17],Synergism
same,IC50,[5],2.5 µM
"CC(=O)C[Se]C(=O)c1ccc(F)c(Cl)c1 [K6, Se-(2-Oxopropyl) 3-Chloro-4-fluorobenzoselenoate]",IC50,"[1]; COLO 320, 24 h, MTT",2.1 µM
same,SI MRC-5/Colo 320,[1],1.72
same,SI MRC-5/HeLa,[2],1.6
same,IC50,[3],2.9 µM
same,Interaction with doxorubicin,[4]; in all ratios tested,synergistic interaction
same,Interaction with doxorubicin,[4]; [6],synergistic manner; also recorded: interact synergistically
same,Type of Interaction,[4]; [12],Synergism
same,Type of Interaction,[4]; [13],Moderate synergism
same,Type of Interaction,[4]; [14],Synergism
same,Type of Interaction,[4]; [15],Synergism
same,Type of Interaction,[4]; [16],Synergism
same,Type of Interaction,[4]; [17],Synergism
same,IC50,[5],2.3 µM
"CC(=O)C[Se]C(=O)c1ccc(C(C)(C)C)cc1 [K7, Se-(2-Oxopropyl) 4-(Tert-butyl)benzoselenoate]",IC50,"[1]; COLO 320, 24 h",2.57 µM
same,SI MRC-5/Colo 320,[1],1.45
same,SI MRC-5/HeLa,[2],1.4
same,IC50,[3],3.7 µM
same,Type of Interaction,[4]; [12],Moderate antagonism
same,Type of Interaction,[4]; [13],Antagonism
same,Type of Interaction,[4]; [14],Moderate antagonism
same,Type of Interaction,[4]; [15],Moderate antagonism
same,Type of Interaction,[4]; [16],Antagonism
same,Type of Interaction,[4]; [17],Antagonism
same,IC50,[5],2.7 µM
"CC(=O)C[Se]C(=O)c1cc(F)c(F)cc1F [K8, Se-(2-Oxopropyl) 2,4,5-Trifluorobenzoselenoate]",IC50,"[1]; COLO 320, 24 h, MTT",2.37 µM
same,SI MRC-5/Colo 320,[1],1.05
same,SI MRC-5/HeLa,[2],1.3
same,IC50,[3],4 µM
same,Interaction with doxorubicin,[4]; [6],synergistic manner; also recorded: interact synergistically
same,Type of Interaction,[4]; [12],Strong synergism
same,Type of Interaction,[4]; [13],Antagonism
same,Type of Interaction,[4]; [14],Antagonism
same,Type of Interaction,[4]; [15],Antagonism
same,Type of Interaction,[4]; [16],Antagonism
same,IC50,[5],2 µM
"N#CC[Se]C(=O)c1cccc(F)c1 [N2, Se-(Cyanomethyl) 3-Fluorobenzoselenoate]",IC50,"[1]; COLO 320, 24 h, MTT",7.01 µM
same,SI MRC-5/Colo 320,[1],>6 *
same,SI MRC-5/HeLa,[2],>6 *
same,IC50,[3],5.6 µM
same,Interaction with doxorubicin,[4]; [6],synergistic manner; also recorded: synergistic effect
same,Type of Interaction,"[4]; ratio 1.7:1, starting conc. 15 µM",Synergism
same,Type of Interaction,"[4]; ratio 3.4:1, starting conc. 15 µM",Antagonism
same,Type of Interaction,"[4]; ratio 6.8:1, starting conc. 15 µM",Synergism
same,Type of Interaction,"[4]; ratio 13.6:1, starting conc. 15 µM",Moderate antagonism
same,Type of Interaction,"[4]; ratio 27.2:1, starting conc. 15 µM",Antagonism
same,Type of Interaction,"[4]; ratio 54.4:1, starting conc. 15 µM",Antagonism
same,IC50,[5],5.2 µM
